# In US20200164005A1, “PHARMACEUTICAL COMPOSITIONS OF A BILE ACID DERIVATIVE AND MICROBIOME AND USES THEREOF” (Intercept Pharmaceuticals, Inc., priority 2017, published 2020):
# Columns and labels:
# Type in all cases: in vivo, human
# [1] = tested on: gut microbiome gene families; test: Gene differential abundance analysis of stool metagenome (HUMAnN2, Uniref50/Uniref90, transposases)
# Source text: (§1) The adaptors, human reads contamination, and low quality sequences were removed from the raw sequencing data using software kneaddata. Trimmomatic (Bolger et al., Bioinformatics 30, 2114 (2014)) was invoked by kneaddata for removing adaptor sequence, trimming low quality bases, and removing low quality reads. Bowtie (Langmead and Salzberg, Nat. Methods 9, 357 (2012)) was invoked by kneaddata for human reads detection. • Removing sequencing noise: For each sample, if the abundance of one species was smaller than 0.05% of the maximum abundance of all species in the sample, it was considered as noise, and the abundance of this species in the sample was set as 0. • Imputing missing value (i.e. Os): Because log 2 transformation was needed in further analysis, adjustment factor (e) was added to the abundance matrix, where e equals 50% of the minimum non-zero abundance value of all samples. • Removing low abundance species: A species was removed if the relative abundance was lower than 0.1% in >=95% of samples. 128 species was kept for further analysis.
# (§2) HUMAnN2 (Abubucker et al., PLoS Comput. Biol. 8, e1002358 (2012)) was used to calculate gene and pathway abundance from metagenomic sequencing data. Uniref50 (UniProt® Consortium, Nucleic Acids Res. 43, D204 (2015)) was used for gene family definition. MetaCyc (Caspi et al., Nucleic Acids Res. 42, D459 (2014)) and KEGG (Kanehisa and Goto, Nucleic Acids Res. 28, 27 (2000); Kanehisa et al., Nucleic Acids Res. 44, D457 (2016)) were used for pathway analysis. • Gene family identification: Initially, 989251 gene families were identified from the dataset by HUMAnN2. Quantile normalization was implemented. For each sample, the RPK values were added up till 90% percentile of all genes (normalization factor, nf). RPK value of each gene in each sample was then divided by the nf of the sample, and multiplied with the mean of nf of all samples. 683270 uncharacterized genes were removed. Genes undetected in over 90% of samples (101994) were removed. 203987 genes were kept. Due to the large number of genes identified, 25% of the most varying genes were selected for further analysis. The most varying genes were defined by the coefficient variation (cv=sd/mean) of log 2 transformed value. • MetaCyc pathway identification: HUMAnN2 identified 567 MetaCyc pathways from the dataset. Quantile normalization was then performed. For each sample, the abundance values were added up till 90% percentile of all pathways (normalization factor, nf). Each pathway abundance in each sample was divided by the nf of the sample, and then multiplied with the mean of nf for all samples. The low abundance pathways (52), which were not detected on over 90% of all samples, were removed. 515 high quality MetaCyc pathways were kept for further analysis. • KEGG pathway identification: HUMAnN2 identified 160 KEGG pathways from the dataset. Quantile normalization was applied, and low abundance pathways were removed. 66 high quality KEGG pathways were kept for further analysis.
# • Species differential abundance analysis: The time effect of OCA treatment was studied on three OCA dose groups separately using Friedman rank test. The dose effect of OCA treatment was studied on three time point separately, and Kruskal-Wallis test was used. • Gene differential abundance analysis: For each of the most varying genes, repeated-measure ANOVA was performed to study the time effect and OCA dose effect on gene abundance change. […]
# gut microbiome species = test: Shotgun metagenomics of stool: relative abundance of gut microbiome species after OCA treatment; details: for OCA Response: abundance change of the bacterial species, subjects treated with 10 mg of OCA
# Experimental: Twenty-four eligible subjects were enrolled and randomized to 1 of 3 treatment groups (5 mg, 10 mg, or 25 mg) in a treatment ratio of 1:1:1. The study comprised single dose and multiple dose phases. The randomized dose administered in the single dose phase was the subject's dose level for the multiple dose phase. A single dose of OCA (5 mg, 10 mg, or 25 mg) was administered on Day 1. On Day 4, the multiple dose phase began at the same dose level (5 mg, 10 mg, or 25 mg), with subjects receiving OCA once daily for 14 days. The last dose was given to subjects on Day 17. Subjects remained at the inpatient trial site from Day 0 until the morning of Day 30, and returned to the study site for collection of a sample on Days 35, 37, 39, and 44.
# Stool specimens for microbiota genome testing were collected up to 2 days prior to submitting them on Day 0, on Day 15, 16, or 17 prior to submitting them on the same day, and up to 2 days prior to submitting them on Day 37. One Day 1, pre-dose blood samples were collected, and serial blood samples were obtained from Day 1 to Day 3 following administration on Day 1 (see Table 1). Multiple dose phase started on Day 4 and lasted through Day 17, during which subjects received once daily doses of OCA (5 mg, 10 mg, or 25 mg) and pre-dose blood samples were drawn (see Table 1).
# For microbiome analysis, stool samples were collected on day 0, day 15 or 16, and day 37. FGF19 and C4
# The bacterial abundance on species level was generated from MetaPhlAn2 (Segata et al., Nat. Methods 9, 811 (2012)). 341 species were identified from the dataset.
# as §1
# • Species differential abundance analysis: The time effect of OCA treatment was studied on three OCA dose groups separately using Friedman rank test. The dose effect of OCA treatment was studied on three time point separately, and Kruskal-Wallis test was used. • Gene differential abundance analysis: For each of the most varying genes, repeated-measure ANOVA was performed to study the time effect and OCA dose effect on gene abundance change.
# An open label, randomized, single dose and multiple dose trial to assess the pharmacokinetics of obeticholic acid (OCA) in 24 healthy male or female subjects aged 18 to 55 years receiving 5, 10 or 25 mg OCA was conducted. Stool specimens for microbiota genome testing were collected by subjects up to 2 days before Day 0 (T0), […] (T1), and Day 37 (T2). […]
# [2] = tested on: KEGG pathways of the gut microbiome; test: KEGG pathway differential abundance analysis of stool metagenome; set-up: key to * (direction of KEGG pathway change): “↑” means the pathway is up-regulated on day 16; “↓” means the pathway is down-regulated on day 16; details: for * (direction of KEGG pathway change): KEGG pathway of the table row, day 16
# Source text: as §2
# gene abundance˜aov(day*OCAdose+error(subject ID)) • Pathway differential abundance analysis: For each of the identified pathways, repeated measure ANOVA was also performed to study the time effect and OCA dose effect on pathway abundance change.
# pathway abundance˜aov(day*OCAdose+error(subject ID)) • FGF19 analysis: The GEE model was applied in order to study the relationship of FGF19 change with the microbiome, gene family, and the pathway abundance change over time. The R function geeglm from R package geepack was used for gee modeling. Both FGF19 level and species/gene/pathway relative abundance were log 2 transformed before applying GEE model.
# [3] = repeated measure ANOVA, FDR<0.05
structure (smiles),measurement,setting,value
"CC[C@H]1[C@@H](O)[C@@H]2[C@H](CC[C@]3(C)[C@@H]([C@H](C)CCC(=O)O)CC[C@@H]23)[C@@]2(C)CC[C@@H](O)C[C@@H]12 [OCA, 3α,7α-dihydroxy-6α-ethyl-5β-cholan-24-oic acid]",number of genes with significant time-dependent effects in response to OCA treatment,"[1]; Uniref90 high stringency genomic analysis, eight bacterial species",782
same,representation of bacterial transposase genes,[1]; all three OCA doses,robust increase
same,glycosyl transferase genes in the presence of OCA,[1]; in vivo,significantly increased
same,OCA dose effect on gene abundance,[1]; [3],No OCA dose effect or OCA dose×day interaction was observed
same,number of genes differentially abundant over time,"[1]; repeated measure ANOVA, FDR<0.05 for time effect",112
same,time-dependent effect of OCA on Streptococcus thermophilus abundance in fecal microbiota,gut microbiome species; 10 mg OCA group,greatest increase
same,abundances of all Gram-negative bacteria following OCA treatment,"gut microbiome species; 10 mg OCA, Table 15",decreased
same,numbers of Lactobacillus casei paracasei and Streptococcus thermophilus upon discontinuation of OCA,"gut microbiome species; OCA 5 mg, 10 mg, 25 mg",decreased
same,abundance of Lactobacillus casei paracasei and Streptococcus thermophilus in stool over time,"gut microbiome species; OCA 5 mg, 10 mg, 25 mg, Friedman rank test, p<0.05",differentially abundant over time in all three OCA dosage groups
same,OCA Response,gut microbiome species; Alistipes_putredinis,Decrease
same,OCA Response,gut microbiome species; Lactococcus_lactis,Increase
same,OCA Response,gut microbiome species; Subdoligranulum_unclassified,Equivocal
same,low abundance gram positive organisms with the use of OCA,gut microbiome species; day 16,consistent increase
same,OCA dose effect on abundance of Bacteroides uniformis and Streptococcus thermophilus,"gut microbiome species; day 16 and day 37, Kruskal-Wallis test, p<0.05",significantly different among dose groups
same,low abundance gram positive organisms after OCA was discontinued,gut microbiome species; day 37,decreased to baseline
same,abundances of Gram-positive bacterial genera following OCA treatment,"gut microbiome species; with two exceptions, 10 mg OCA, Table 15",increased abundances
same,* (direction of KEGG pathway change),[2]; Fatty acid biosynthesis,↓
same,* (direction of KEGG pathway change),[2]; Purine metabolism,↑
same,number of KEGG pathways differentially abundant over time,"[2]; of 66, FDR<0.05 for time effect",26
same,OCA dose effect on KEGG pathway abundance,[2]; [3],No OCA dose or dose×day interaction was observed
